Reference: PubChem BioAssay AID588662 (The Scripps Research Institute Molecular Screening Center, 2011)
The source made the active and inactive calls.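 How the source made its calls: active means p38 protein level shifted at least 30% from solvent-only control, either down or up; inactive means shift under 30% either way.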

Target: Mitogen-activated protein kinase 14 (Homo sapiens) (UniProt Q16539)
Test: total p38 protein level change, either direction, late-stage follow-up, counter-screen for KLF5 inhibitor project, SW620 cells, chemiluminescent western blot, powder samples (AID 588662)
Conditions: 24 h, at 10 µM

Mitogen-activated protein kinase 14 (Homo sapiens), sequence (Q16539 whole entry, looked up): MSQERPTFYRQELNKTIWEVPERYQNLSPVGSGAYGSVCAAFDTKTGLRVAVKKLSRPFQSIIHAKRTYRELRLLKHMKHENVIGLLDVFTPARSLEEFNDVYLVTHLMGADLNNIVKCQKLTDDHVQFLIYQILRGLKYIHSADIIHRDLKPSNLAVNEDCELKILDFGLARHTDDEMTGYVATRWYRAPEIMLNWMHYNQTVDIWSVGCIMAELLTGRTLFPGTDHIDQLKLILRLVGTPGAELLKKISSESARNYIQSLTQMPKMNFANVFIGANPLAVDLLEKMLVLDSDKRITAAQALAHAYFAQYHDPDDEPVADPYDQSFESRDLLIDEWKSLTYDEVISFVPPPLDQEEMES

Row | inhibition | SMILES
1 | -3.03% (inactive) | CN(C(=O)COC(=O)/C=C/c1cccc([N+](=O)[O-])c1)C1CCS(=O)(=O)C1 (stereo not drawn)
2 | 1.69% (inactive) | CN(C(=O)CNC(=O)/C=C/c1cccc(Cl)c1)C1CCS(=O)(=O)C1 (stereo not drawn)
3 | -41.1% | CN(C(=O)CNC(=O)/C=C/c1cccc(Cl)c1)C1CCS(=O)(=O)CC1
